According to US8999375B2, “Compositions including pyruvate for companion animals and methods of use thereof” (Hill's Pet Nutrition, Inc., priority 2009, dated 2015):

System: arthritic and normal cats
Assay: Feline arthritis biomarker measurements in arthritic and normal cats
Format: in vivo
Details: 1% by weight in diet, 28 days
Method: Calcium pyruvate was tested in arthritic and normal cats to determine efficacy in reducing cartilage damage and inflammatory markers. Ten normal and ten arthritis cats were fed the feline control diet enhanced with 1% by weight calcium pyruvate for 28 days. Analysis was performed on natural log transformed values. Means and SED are antilog values of log transformed data.

## calcium pyruvate
  concentration of serum HMGB1 (in words): reduced
  concentration of serum IL-1 beta (in words): reduced
  marker of bone formation, BAP (in words): improved
